Source: patent US4322351A (priority 1980, dated 1982)
Counter-ions that a name gives are not always drawn.

Tests used:
[1] = system: Chinese hamster ovary cells; assay: standard mitotic inhibition test employing Chinese hamster ovary cells; type: cell-based
Excerpt: The compounds of this invention are antimitotic compounds which adversely affects the growth of malignant cells. This activity is manifested in a standard mitotic inhibition test employing Chinese hamster ovary cells.

B16 melanoma = assay: transplanted tumors in mice: B16 melanoma; type: in vivo; settings: intraperitoneal; for percent Prolongation of life (PL): * = 1 or more indefinite survivors
Protocol: (§1) The bases of this invention and their salts preparable by the processes disclosed herein are active in vivo against transplanted tumors in mice.
(§2) The following table--Table 1--gives the results of experiments in which mice bearing the susceptible transplanted tumor were treated with a compound of this invention. In the table, column 1 gives the name of the compound; column 2, the tumor used; column 3 the dosage; and column 4, the percent inhibition of tumor growth (I) or prolongation of life (PL). The following dosage regimens were employed: every day for 7 or 10 days after tumor inoculation; or every fourth day (three doses) starting at the third day after tumor inoculation.

P388/V leukemia = assay: transplanted tumors in mice: P388/V leukemia; type: in vivo; settings: dose and regimen not given, intraperitoneal
Protocol: as §1, §2

P1534(J) = assay: transplanted tumors in mice: P1534(J) leukemia; type: in vivo; settings: intraperitoneal
Protocol: as §1
The following table--Table 1--gives the results of experiments in which mice bearing the susceptible transplanted tumor were treated with a compound of this invention. In the table, column 1 gives the name of the compound; column 2, the tumor used; column 3 the dosage; and column 4, the percent inhibition of tumor growth (I) or prolongation of life (PL). […]

755 adenocarcinoma = assay: transplanted tumors in mice: 755 adenocarcinoma; type: in vivo; settings: intraperitoneal
Protocol: as §1, §2

tumor = settings: background, U.S. Pat. No. 4,166,810 and Conrad et al.; cited from earlier work

Compound: 4'-Acetylamino VLB
- mitotic index ([1]; 2.0×10^-2 mcg/ml): + (15-25% inhibition)

Compound: CCC1(NC(C)=O)C[C@@H]2CN(CCc3c([nH]c4ccccc34)[C@@](C(=O)OC)(c3cc4c(cc3OC)N(C)[C@H]3[C@@](O)(C(=O)OC)[C@H](OC(C)=O)[C@]5(CC)C=CCN6CC[C@]43[C@@H]65)C2)C1 (some centres unmarked) [4'-acetylamino VLB sulfate]
- indefinite survivors (B16 melanoma; 3 days, 1.5 mg/kg): * (1 or more indefinite survivors)
- percent Prolongation of life (PL) (B16 melanoma; 3 days, 1.5 mg/kg): 120%
- indefinite survivors (B16 melanoma; 3 days, 3 mg/kg): * (1 or more indefinite survivors)
- percent Prolongation of life (PL) (B16 melanoma; 3 days, 3 mg/kg): 74-201%
- indefinite survivors (B16 melanoma; .75 mg/kg): * (1 or more indefinite survivors)
- percent Prolongation of life (PL) (B16 melanoma; .75 mg/kg): 119%
- indefinite survivors (P388/V leukemia): * (1 or more indefinite survivors)
- percent Prolongation of life (PL) (P388/V leukemia; * = 1 or more indefinite survivors): 20%
- Percent Inhibition (I) of tumor growth (P1534(J); every third day, 5.0 mg/kg): 42%
- Percent Inhibition (I) of tumor growth (P1534(J); every third day, 7.5 mg/kg): 71%
- Percent Inhibition (I) of tumor growth (755 adenocarcinoma; 10 days, 1 mg/kg): 18%
- Percent Inhibition (I) of tumor growth (755 adenocarcinoma; 10 days, .5 mg/kg): 30%
- Percent Inhibition (I) of tumor growth (755 adenocarcinoma; 10 days, .75 mg/kg): 29%
- Percent Inhibition (I) of tumor growth (755 adenocarcinoma; 11 days, 3 mg/kg): 57%
- Percent Inhibition (I) or Prolongation (PL) column: toxicity (755 adenocarcinoma; 11 days, 6 mg/kg): Toxic
- Percent Inhibition (I) of tumor growth (755 adenocarcinoma; 11 days, .5 mg/kg): 33%

Compound: CCC1(NC(C)=O)C[C@@H]2CN(CCc3c([nH]c4ccccc34)[C@@](C(=O)OC)(c3cc4c(cc3OC)N(C)[C@H]3[C@@](O)(C(=O)OC)[C@H](O)[C@]5(CC)C=CCN6CC[C@]43[C@@H]65)C2)C1 (some centres unmarked) [4'-acetylamino-4-desacetyl VLB]
- inhibition at 2 µg/mL ([1]; Cricetulus griseus, CHO, read-out: mitotic index): 25 to 50%
- Percent Inhibition (I) of tumor growth (B16 melanoma; 10 1.0 (regimen and dose mg/kg)): 58%
- Percent Inhibition (I) of tumor growth (B16 melanoma; .5 mg/kg): 23%
- Percent Inhibition (I) of tumor growth (B16 melanoma; .75 mg/kg): 44%
- Percent Inhibition (I) of tumor growth (P1534(J); 9.5-1.0 mg/kg): 2-11%

Compound: CC[C@]1(O)C[C@@H]2CN(CCc3c([nH]c4ccccc34)[C@@](C(=O)OC)(c3cc4c(cc3OC)N(C)[C@H]3[C@@](O)(C(N)=O)[C@H](O)[C@]5(CC)C=CCN6CC[C@]43[C@@H]65)C2)C1 [vindesine, 4-desacetyl VLB C-3 carboxamide]
- anti-tumor activity (tumor): very active
